Legend:
[1] = system: human poly-IgG (h-poly-IgG); assay: Microtiter plate chromatography of resins, human poly-IgG (bound, yield); format: binding
Palivizumab = assay: Microtiter plate chromatography of resins, Palivizumab (bound, yield); format: binding, humanized
Bevacizumab Fc fragment = assay: Microtiter plate chromatography of resins, Bevacizumab Fc fragment (bound); format: binding, humanized
Protocol: (§1) Resins were assessed in packed mode by microtiter plate chromatography. For each column, approximately 30 μl of resin were transferred to a 384-well filter plate and sealed with appropriate top frits.
(§2) Columns were equilibrated with 6.7 column volumes (cv) of phosphate buffered saline (0.15 M NaCl, 20 mM sodium phosphate, pH 7.3; PBS) prior to injection. Either 3.3 cv of whole IgGs dissolved at 0.75 mg ml^−1, Fab or Fc fragments dissolved at 0.25 mg ml^−1 (all three in PBS) or host cell proteins (HCP) were injected onto columns. Antibody fragments of Bevacizumab (Fab and Fc) were prepared by cleavage of whole IgG with papain protease (3) according to the protocol of the manufacturer. […] Volumes transferred were spun through columns at 50 g for 1-2 min. During injection of samples, acceleration was reduced to 10 g and centrifugation time increased to 5-10 min. Effluent fractions were collected in 384-well plates and concentrations of protein analyzed by Bradford assay. Protein masses mi, mft and me (see below) were calculated as the product of fraction volume and measured protein concentration.
(§3) The fraction of ‘bound’ protein was calculated as the difference between the total mass of protein injected mi and the mass of protein detected in the flowthrough mft, divided by the total mass of protein injected.
(§4) the fraction of ‘bound’ protein and the ‘yield’ of protein were calculated for each resin based on data for whole IgG-antibodies. In the case of Bevacizumab fragments and host cell proteins, only the fraction of ‘bound’ protein is given. Selectivity of resins was calculated from data for Bevacizumab Whole IgG and host cell proteins. Due to limited experimental precision, selectivity was truncated beyond values of 10.

full length Bevacizumab = assay: SPR screening of chemical microarrays, full length Bevacizumab; format: binding, humanized; conditions: chemical microarray, immobilized ligand
From the text: (§5) Graffinity has developed high density chemical microarrays comprising thousands of small molecules immobilized onto gold chips. The arrays are constructed using maleimide-thiol coupling chemistry in combination with high density pintool spotting. For the construction, glass plates are microstructured by photolithographical methods in order to define up to 9,216 sensor fields per array. A subsequently applied gold coating provides the basis for the SPR effect and enables the formation of a binary, mixed self assembled monolayer (SAM) of two different thiols. […]
(§6) Surface plasmons are collective oscillations of electrons at a metal surface which can be resonantly excited by polarized light of appropriate wavelength and incidence angle. […] Processes which alter the local refractive index in close proximity to the metal surface (such as antibody binding to the immobilized ligands) can therefore be monitored sensitively. […] While scanning over a range of wavelengths covering the SPR resonance conditions, reflection images are recorded stepwise. […]
(§7) The experimental results of the microarray screening campaigns were analyzed by manual hit selection using in-house developed software routines as well as by an in-depth data analysis by commercially available data mining tools. […]

Bevacizumab = molecular target: T1, Bevacizumab (Homo sapiens, UniProt P01857); assay: Langmuir isotherms by batch adsorption; format: binding, humanized; conditions: Bevacizumab in PBS pH 7.3, 25° C., at least 3 h
T1 construct: fused on or other part: humanised anti-VEGF-A VH domain N-terminal of the gamma-1 constant region (engineered, no UniProt entry)
Protocol: Experiments were performed with Bevacizumab as antibody. Parameters of Langmuir isotherms for purified antibody were determined by batch adsorption experiments in 96-well microtiter plates. In each well, 10 μl of sorbent slurry (50% v/v) were mixed with 100 μl of protein solution. Initial concentrations varied from 0.05-5 mg ml^−1 in phosphate-buffered saline (0.15 M NaCl, 20 mM phosphate buffer, pH 7.3; PBS). Reactions were agitated vigorously at 25° C. for at least 3 h. Afterwards, antibody concentration in the supernatents were measured by Bradford assay.
Parameters of Langmuir isotherms, i.e. dissociation constants Kd and maximum capacities qm, were determined from the measured concentrations in supernatants. Parameters were estimated by numerical fitting of the model equation derived by Chase (4).

Bevacizumab Fab fragment [2] = assay: Microtiter plate chromatography of resins, Bevacizumab Fab fragment (bound); format: binding, humanized
Protocol: as §1, §2, §3, §4

Bevacizumab Fab fragment [3] = assay: SPR screening of chemical microarrays, Bevacizumab Fab fragment; format: binding, humanized; conditions: chemical microarray, immobilized ligand
From the text: as §5, §6, §7

Anti RhD IgG = assay: SPR screening of chemical microarrays, Anti RhD IgG; format: binding; conditions: chemical microarray, immobilized ligand
From the text: as §5, §6, §7

Compound: COc1ccc(NC(=O)c2cc(-c3ccco3)n(C)n2)cc1C(=O)NCCCN [Ligand L1, 5-[5-(2-Furyl)-1-methylpyrazol-3-yl]carboxamido-2-methoxybenzoic acid N-(3-aminopropyl)amide]
- h-poly-IgG Bound (%) [1]: 100%
- h-poly-IgG Yield (%) [1]: 90%
- Palivizumab Bound (%) (Palivizumab): 100%
- Palivizumab Yield (%) (Palivizumab): 92%
- Bevacizumab Fc Bound (%) (Bevacizumab Fc fragment; Bevacizumab Fc fragment): 100%
- binding of Bevacizumab Fc-fragment (Bevacizumab Fc fragment; Fc 0.25 mg ml^-1 in PBS): bound the Fc-fragment
- SPR binding to full length Bevacizumab (full length Bevacizumab): distinct binding
- qm (maximum capacity, Langmuir isotherm) (Bevacizumab): 36 mg per ml resin
- Bevacizumab Fab Bound (%) (Bevacizumab Fab fragment [2]; Bevacizumab Fab fragment): 18%
- binding of Bevacizumab Fab-fragment (Bevacizumab Fab fragment [2]; Fab 0.25 mg ml^-1 in PBS): not the Fab-fragment
- SPR binding to Bevacizumab Fab fragment (Bevacizumab Fab fragment [3]): only minor binding
- SPR binding to full length Anti RhD IgG (Anti RhD IgG): clearly bound
